Test results as given in ChEMBL document CHEMBL3217755, “Design, synthesis and biological evaluation of biphenyl urea derivatives as novel VEGFR-2 inhibitors” (Medchemcomm, 2013).

Tests used:
K562 = test: Antiproliferative activity against human K562 cells after 48 hrs by MTT assay; details: K562, 48 h
HeLa = test: Antiproliferative activity against human HeLa cells after 48 hrs by MTT assay; assay type: functional, cell-based
MDA-MB-231 = test: Antiproliferative activity against human MDA-MB-231 cells after 48 hrs by MTT assay; assay type: functional, cell-based; details: MDA-MB-231, 48 h
[1] = Antiproliferative activity against human SMMC7721 cells after 48 hrs by MTT assay; assay type: functional, cell-based; details: SMMC-7721, 48 h
A549 = test: Antiproliferative activity against human A549 cells after 48 hrs by MTT assay; assay type: functional, cell-based; details: A549, 48 h
SH-SY5Y = test: Antiproliferative activity against human SH-SY5Y cells after 48 hrs by MTT assay; assay type: functional, cell-based
[2] = Antiproliferative activity against human SGC7901 cells after 48 hrs by MTT assay; assay type: functional, cell-based; details: SGC-7901, 48 h
LoVo = test: Antiproliferative activity against human LoVo cells after 48 hrs by MTT assay; assay type: functional, cell-based
SK-BR-3 = test: Antiproliferative activity against human SK-BR-3 cells after 48 hrs by MTT assay; assay type: functional, cell-based; details: SK-BR-3, 48 h

Row | SMILES | IC50 (K562) [µM] | IC50 (HeLa) [µM] | IC50 (MDA-MB-231) [µM] | IC50 (A549) [µM] | IC50 (SH-SY5Y) [µM] | IC50 (LoVo) [µM] | IC50 (SK-BR-3) [µM] | IC50 [1] [µM] | IC50 [2] [µM]
1 | COc1cc(-c2cc(NC(=O)Nc3ccc(OCCN(C)C)cc3)cc(OC)c2OC)ccc1/C(C)=N/O | 8.58 | 63.2 | 35.2 |  | 6.2 |  |  |  | 34.2
2 | CCN(CC)CCOc1ccc(NC(=O)Nc2cc(OC)c(OC)c(-c3ccc(/C(C)=N/O)c(OC)c3)c2)cc1 | 1.29 | 13.4 | 20.3 | 11.7 | 18.4 | 48.4 |  | 36.4 | 58.1
3 | CCN(CC)CCOc1ccc(C)c(NC(=O)Nc2cc(OC)c(OC)c(-c3ccc(/C(C)=N/O)c(OC)c3)c2)c1 | 1.25 |  |  | 11.2 | 43.5 |  | 14.7 |  | 
4 | CNC(=O)c1cc(Oc2ccc(NC(=O)Nc3ccc(Cl)c(C(F)(F)F)c3)cc2)ccn1 [SORAFENIB] |  | 7.68 |  | 3.36 |  |  | 5.21 | 9.86 | 102

The next lines start with results.

Row | IC50 (K562) [µM] | IC50 (HeLa) [µM] | IC50 (MDA-MB-231) [µM] | IC50 (A549) [µM] | IC50 (SH-SY5Y) [µM] | IC50 (LoVo) [µM] | IC50 (SK-BR-3) [µM] | SMILES | IC50 [1] [µM] | IC50 [2] [µM]
5 | 15.8 | 243 | 49.2 | 23.7 | 18.4 |  |  | COc1cc(-c2cc(NC(=O)Nc3ccc(OCCCN4CCOCC4)cc3C)cc(OC)c2OC)ccc1/C(C)=N/O | 33.3 | 
6 | 4.81 |  |  |  |  | 49.2 | 38.9 | COc1cc(-c2cc(NC(=O)Nc3ccc(OCCN4CCCC4)cc3)cc(OC)c2OC)ccc1/C(C)=N/O |  | 
7 | 0.29 | 92.3 |  | 11.7 | 4.91 |  |  | COc1cc(-c2cc(NC(=O)Nc3ccc(OCCCN4CCOCC4)cc3)cc(OC)c2OC)ccc1/C(C)=N/O | 9.88 | 6.8
